Measured values: publication PMC6240685, “Strong Inhibitory Effect, Low Cytotoxicity and High Plasma Stability of Steroidal Inhibitors of N-Methyl-D-Aspartate Receptors With C-3 Amide Structural Motif” (Frontiers in Pharmacology, 2018)

Tested on: native NMDARs
Assay: Inhibition of native NMDAR responses in cultured hippocampal neurons
Assay type: cell-based, rat
Description: FIGURE 8 The effect of compound 6 on peak and steady-state responses of native NMDARs, AMPARs, and GABARs. (A) Examples of traces obtained from cultured hippocampal neurons. Compound 6 (10 μM) was pre-applied in the absence of agonists followed by co-application with NMDA (100 μM), AMPA (100 μM), and GABA (5 μM) (duration of agonist and steroid application is indicated by filled and open bars, respectively). (B) Bar graph represents the mean values of relative changes in the peak (black columns) and steady-state (red columns) responses of native NMDARs, AMPARs, and GABARs recorded in the continuous presence of 10 μM compound 6. Error bars represent SD from five independent measurements. Asterisks mark significance at the level of P < 0.05 (Paired t-test). […]
Electrophysiological experiments were performed on HEK293 cells transfected with plasmids encoding rat GluN1-1a/GluN2A-D and GFP genes as described previously, ([Petrovic et al., 2005]; [Cais et al., 2008]; [Korinek et al., 2010]) or on primary hippocampal neurons prepared from P0–P1 rats, plated on collagen/poly-D-lysine-coated glass coverslips at a density of ∼50,000 cells/cm^2, and grown in Neurobasal A medium with B27 Supplement (Gibco). […] Agonist-induced responses were low-pass filtered at 2 kHz, digitally sampled at 5 kHz, and analyzed with pClamp software version 10.5 (Molecular Devices). […]

Question: How did the “inhibition of steady-state vs peak response, NMDARs” value (10 μM compound present continuously, NMDA 100 μM) turn out when `C[C@@]12CCC[C@H]1[C@@H]1CC[C@@H]3C[C@H](NC(=O)[C@@H](N)CC(=O)O)CC[C@]3(C)[C@H]1CC2` [Compound 6, (S)-3-amino-4-(((3R,5R,8S,9S,10S,13S,14S)-10,13-dimethylhexadecahydro-1H-cyclopenta[a]phenanthren-3-yl)amino)-4-oxobutanoic acid] was run?
Answer: more efficient inhibitor of tonically activated receptors at the steady–state

Question: And the IC50 (100 μM NMDA, hippocampal neurons)?
Answer: 8.3 ± 2.1 µM
